Biological target: T1, Human STING (Homo sapiens, UniProt Q86WV6, G230A/H232R/R293Q/R71H)
T1 construct: host or cells: THP1-Dual cells, digitonin-permeabilized
Experiment: Activation of human STING signaling in permeabilized THP1 cells, IRF3 induction
Format: cell-based
Conditions: THP1-Dual cells permeabilized with digitonin buffer 30 minutes on ice, then 24 h in RPMI media
Procedure: To evaluate IRF3 reporter levels, cell culture supernatant (20 μl) from each incubated sample was added to QUANTI-Luc™ assay solution (Invivogen, 50 μl), and the luminescence was measured with a SpectraMax M3 spectrophotometer (Molecular Devices).
4×10^5 THP1-Dual™ cells (NF-κB-SEAP and IRF-Lucia luciferase Reporter Monocytes, Invivogen) were incubated with test Compounds in a 5-fold titration steps from […] in permeabilized buffer (50 mM HEPES pH 7.0, 100 mM KCl, 3 mM MgCl2, 85 mM sucrose, 0.2% BSA, 1 mM ATP, 0.1 mM GTP, 0.1 mM TTP, 1 μg/ml digitonin) for 30 minutes on ice. Cells were then washed and incubated in a fresh RPMI media with 10% FBS at 37° C. with 5% CO2 for 24 h. Cell culture supernatants from each sample were collected and NFkB and IRF3 were evaluated as above. Table 3 provides the results for IRF3 induction (“A” means <1 μM; “B” means ≥1 μM and <50 μM; “C” means ≥50 μM).

T1 sequence (Q86WV6 whole entry R71H/G230A/H232R/R293Q): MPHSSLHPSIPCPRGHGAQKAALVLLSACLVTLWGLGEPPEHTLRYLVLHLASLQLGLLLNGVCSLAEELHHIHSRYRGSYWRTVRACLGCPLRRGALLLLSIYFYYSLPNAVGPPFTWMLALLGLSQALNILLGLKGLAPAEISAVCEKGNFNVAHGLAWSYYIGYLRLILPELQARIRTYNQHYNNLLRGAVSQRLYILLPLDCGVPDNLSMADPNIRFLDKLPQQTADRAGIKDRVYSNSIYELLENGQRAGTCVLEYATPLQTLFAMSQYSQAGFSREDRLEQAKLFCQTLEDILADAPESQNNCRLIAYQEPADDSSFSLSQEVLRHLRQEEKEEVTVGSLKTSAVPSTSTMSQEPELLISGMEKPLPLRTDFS

| SMILES | EC50 |
| --- | --- |
| COc1cc(C(N)=O)cc2nc(NC(=O)c3cc(C)no3)n(C/C=C/Cn3c(NC(=O)c4cc(C)no4)nc4cc(C(N)=O)cc(OCCCO)c43)c12 [compound 12] | 1000 to 50000 nM |
| CCn1nc(C)cc1C(=O)/N=c1\sc2cc(C(N)=O)cc(OC)c2n1C/C=C/Cn1c(NC(=O)c2ncnn2C(C)C)nc2cc(C(N)=O)cc(OCCCO)c21 [compound 71] | 1000 to 50000 nM |
| CCc1nc(C)oc1C(=O)Nc1nc2cc(C(N)=O)cnc2n1C/C=C/Cn1c(NC(=O)c2sc(C)nc2CC)nc2cc(C(N)=O)cc(OCCCO)c21 [Compound 143] | < 1000 nM |
| CCc1nc(C)oc1C(=O)Nc1nc2cc(C(N)=O)cnc2n1C/C=C/Cn1c(NC(=O)c2oc(C)nc2CC)nc2cc(C(N)=O)cnc21 [compound 85] | 1000 to 50000 nM |
| CCn1nc(C)cc1C(=O)/N=c1\sc2cc(C(N)=O)cc(OC)c2n1C/C=C/Cn1c(NC(=O)c2cc(C)nn2CC)nc2cc(C(N)=O)cc(OCCCN)c21 [compound 67] | < 1000 nM |
| CCc1nc(C)sc1C(=O)Nc1nc2cc(C(N)=O)cc(OCCCO)c2n1C/C=C/Cn1c(NC(=O)c2cc(C)nn2CC)nc2cc(C(N)=O)ccc21 [compound 52] | < 1000 nM |
| COc1cc(C(N)=O)cc2nc(NC(=O)c3cnc(C)n3C)n(C/C=C/Cn3c(NC(=O)c4cnc(C)n4C)nc4cc(C(N)=O)cc(OCCCO)c43)c12 [compound 16] | ≥ 50000 nM |
| CCc1nc(C)oc1C(=O)Nc1nc2cc(C(N)=O)cnc2n1C/C=C/Cn1c(NC(=O)c2oc(C)nc2CC)nc2cc(C(N)=O)cc(Br)c21 [compound 90] | < 1000 nM |
| COc1cc(C(N)=O)cc2nc(NC(=O)c3nc(C)oc3C)n(C/C=C/Cn3c(NC(=O)c4nc(C)oc4C)nc4cc(C(N)=O)cc(OCCCO)c43)c12 [compound 13] | ≥ 50000 nM |
| CCc1ncoc1C(=O)/N=c1\sc2cc(C(N)=O)cc(OC)c2n1C/C=C/Cn1c(NC(=O)c2ocnc2CC)nc2cc(C(N)=O)cc(OCCCO)c21 [compound 64] | ≥ 50000 nM |
| CCc1nc(C)oc1C(=O)Nc1nc2cc(CN(C)C)cc(OC)c2n1C/C=C/Cn1c(NC(=O)c2oc(C)nc2CC)nc2cc(C(N)=O)cc(OCCCO)c21 [Compound 133] | 1000 to 50000 nM |
| CCc1nc(C)oc1C(=O)Nc1nc2cc(C(N)=O)cc(OCCCO)c2n1C/C=C/Cn1c(NC(=O)c2cc(C)nn2CC)nc2cc(C(N)=O)ccc21 [compound 51] | < 1000 nM |
| CCc1nc(C)oc1C(=O)/N=c1\sc2cc(C(N)=O)cnc2n1C/C=C/Cn1c(NC(=O)c2sc(C)nc2CC)nc2cc(C(N)=O)cc(OCCCO)c21 [Compound 142] | < 1000 nM |
| CCn1nc(C)cc1C(=O)/N=c1\sc2cc(C(N)=O)cc(OC)c2n1C/C=C/Cn1c(NC(=O)C2=C(C)OCC2)nc2cc(C(N)=O)cc(OCCCO)c21 [compound 75] | ≥ 50000 nM |
| COc1cc(C(N)=O)cc2nc(NC(=O)c3nccn3C(C)C)n(C/C=C/Cn3c(NC(=O)c4nccn4C(C)C)nc4cc(C(N)=O)cc(OCCCO)c43)c12 [compound 15] | ≥ 50000 nM |
| CCc1nc(C)oc1C(=O)Nc1nc2cc(C(N)=O)cc(OCCCC(=O)O)c2n1C/C=C/Cn1/c(=N/C(=O)c2cc(C)nn2CC)sc2cc(C(N)=O)cc(OC)c21 [Compound 150] | < 1000 nM |
| CCc1nc(C)oc1C(=O)Nc1nc2cc(NC(C)=O)cc(OC)c2n1C/C=C/Cn1c(NC(=O)c2oc(C)nc2CC)nc2cc(C(N)=O)cc(OCCCO)c21 [Compound 131] | 1000 to 50000 nM |
| CCc1nn(C)cc1C(=O)Nc1nc2cc(C(N)=O)cc(OC)c2n1C/C=C/Cn1c(NC(=O)c2cn(C)nc2CC)nc2cc(C(N)=O)cc(OCCCO)c21 [compound 11] | 1000 to 50000 nM |
| CCc1nc(C)oc1C(=O)Nc1nc2cc(C(N)=O)cc(OC)c2n1C/C=C/Cn1c(NC(=O)c2cnc(C)o2)nc2cc(C(N)=O)cc(OCCCO)c21 [Compound 136] | ≥ 50000 nM |
| Cn1nncc1C(=O)Nc1nc2cc(C(N)=O)ccc2n1C/C=C/Cn1c(NC(=O)c2cnnn2C)nc2cc(C(N)=O)cc(OCCCO)c21 [compound 27] | ≥ 50000 nM |
| Cc1cc(C(=O)Nc2nc3cc(C(N)=O)ccc3n2C/C=C/Cn2c(NC(=O)c3cc(C)on3)nc3cc(C(N)=O)cc(OCCCO)c32)no1 [compound 26] | < 1000 nM |
| CCc1nc(C)oc1C(=O)Nc1nc2cc(CN)cc(OC)c2n1C/C=C/Cn1c(NC(=O)c2oc(C)nc2CC)nc2cc(C(N)=O)cc(OCCCO)c21 [Compound 128] | < 1000 nM |
| CCc1nc(C)oc1C(=O)Nc1nc2cc(C(N)=O)cc(OCCCO)c2n1C/C=C/Cn1c(NC(=O)c2sc(C)nc2CC)nc2cc(C(N)=O)cc(OC)c21 [compound 37] | < 1000 nM |
| CCc1nc(C)oc1C(=O)Nc1nc2cc(C(N)=O)cc(OC)c2n1C/C=C/Cn1c(NC(=O)c2cnco2)nc2cc(C(N)=O)cc(OCCCO)c21 [Compound 138] | ≥ 50000 nM |
| CCc1nc(C)oc1C(=O)Nc1nc2cc(C(N)=O)cc(OCCCO)c2n1C/C=C/Cn1/c(=N/C(=O)c2sc(C)nc2CC)sc2cc(C(N)=O)cc(OC)c21 [compound 76] | < 1000 nM |
| CCc1nc(C)oc1C(=O)Nc1nc2cc(C(N)=O)cc(OC)c2n1C/C=C/Cn1c(NC(=O)c2sc(C)nc2CC)nc2cc(C(N)=O)cc(OCCCO)c21 [compound 40] | < 1000 nM |

Now from value to molecule:

| EC50 | SMILES |
| --- | --- |
| < 1000 nM | CCn1nc(C)cc1C(=O)/N=c1\sc2cc(C(N)=O)cnc2n1C/C=C/Cn1c(NC(=O)c2cc(C)nn2CC)nc2cc(C(N)=O)cc(OCCCO)c21 [compound 110] |
| ≥ 50000 nM | CCc1nc(C)n(C)c1C(=O)Nc1nc2cc(C(N)=O)cc(OCCCO)c2n1C/C=C/Cn1c(NC(=O)c2cc(C)nn2CC)nc2cc(C(N)=O)cc(OC)c21 [compound 41] |
| < 1000 nM | CCn1nc(C)cc1C(=O)Nc1nc2cc(N)cnc2n1C/C=C/Cn1c(NC(=O)c2cc(C)nn2CC)nc2cc(C(N)=O)cc(OC)c21 [Compound 134] |
| < 1000 nM | CCn1nc(C)cc1C(=O)Nc1nc2cc(CN)cnc2n1C/C=C/Cn1c(NC(=O)c2cc(C)nn2CC)nc2cc(C(N)=O)cc(OCCCO)c21 [Compound 122] |
| 1000 to 50000 nM | CCn1nc(C)cc1C(=O)/N=c1\sc2cc(C(N)=O)cc(OCCCO)c2n1C/C=C/Cn1c(NC(=O)c2cc(C)nn2CC)nc2cc(C(N)=O)cnc21 [Compound 147] |
| 1000 to 50000 nM | CCn1nc(C)cc1C(=O)Nc1nc2cc(CN(C)C)cnc2n1C/C=C/Cn1c(NC(=O)c2cc(C)nn2CC)nc2cc(C(N)=O)cc(OC)c21 [Compound 132] |
| < 1000 nM | CCn1nc(C)cc1C(=O)Nc1nc2cc(C(N)=O)cnc2n1C/C=C/Cn1c(NC(=O)c2cc(C)nn2CC)nc2cc(C(N)=O)cc(OCCCC(=O)O)c21 [Compound 112] |
| < 1000 nM | CCn1nc(C)cc1C(=O)Nc1nc2cc(CNC(C)=O)cnc2n1C/C=C/Cn1c(NC(=O)c2cc(C)nn2CC)nc2cc(C(N)=O)cc(OCCCO)c21 [Compound 126] |
| 1000 to 50000 nM | CCn1nc(C)cc1C(=O)Nc1nc2cccnc2n1C/C=C/Cn1c(NC(=O)c2cc(C)nn2CC)nc2cc(C(N)=O)cc(OCCCO)c21 [Compound 114] |
| < 1000 nM | CCc1nc(C)oc1C(=O)Nc1nc2cc(C(N)=O)cnc2n1C/C=C/Cn1c(NC(=O)c2sc(C)nc2CC)nc2cc(C(N)=O)cc(OCCCC(=O)O)c21 [Compound 151] |
| 1000 to 50000 nM | CCn1nc(C)cc1C(=O)Nc1nc2cc(CN)cnc2n1C/C=C/Cn1c(NC(=O)c2cc(C)nn2CC)nc2cc(C(N)=O)cc(OC)c21 [Compound 129] |
| 1000 to 50000 nM | CCn1nc(C)cc1C(=O)Nc1nc2cc(C(N)=O)cnc2n1C/C=C/Cn1c(NC(=O)c2oc(C)nc2C)nc2cc(C(N)=O)cc(OCCCO)c21 [Compound 113] |
| < 1000 nM | CCc1nc(C)oc1C(=O)Nc1nc2cc(C(N)=O)cc(OCCCO)c2n1C/C=C/Cn1c(NC(=O)c2cc(C)nn2CC)nc2cc(C(N)=O)cnc21 [Compound 111] |
